Where two headings read alike, the source gives them in different places.
What was measured:
[1] = test system: Male Sprague Dawley rats; experiment: Oral glucose tolerance test (OGTT) 1; format: in vivo; details: Rattus norvegicus, 2 h; SD rats; 10 mg/kg oral; glucose 4 g/kg 30 minutes after; read-out: % AUC (reduction (%) of blood glucose AUC)
Method: Male Sprague Dawley rats aged 8-10 weeks old were acclimated for at least 7 days, and then only healthy animals were used for the oral glucose tolerance test (OGTT test). After fasting for 16-18 hours, five rats per group were randomly grouped and orally administered with the compounds prepared in Examples 2, 3, 4, 6, 9, 12, 14, 16, 25, 29, 36, 37, 41, 43, and 44 at a dose of 10 mg/kg each. Here, as for a non-treated group (vehicle), a solution (PEG 400/Tween 80/0.25% CMC, 5%/5%/90%, v/v/v) containing 5% polyethyleneglycol/5% tween 80/0.25% carboxymethylcelluluse (CMC) was orally administered at the same dose. Glucose (4 g/kg) was orally administered at a dose of 5 ml/kg 30 minutes after each sample was administered. Then, the blood glucose was measured by using Accu-chek active strip (Roche diagnostic Co.).

[2] = molecular target: T1, human GPR40 (Homo sapiens, UniProt O14842); experiment: Activation of GPR40 protein: intracellular calcium change (Fluo-4, Flexstation 3) in transfected HEK-293 cells; format: cell-based; details: HEK-293 cells transfected with human GPR40
T1 construct: host or cells: HEK-293
Method: The activation of GPR40 protein by a novel 3-(4-(benzyloxy)phenyl)hex-4-ynoic acid derivative of the present invention was evaluated through the change in intracellular calcium concentration due to the activity of GPR40 protein. First, HEK-293 cells were transfected with human GPR40 DNA (Origene, RC218370) by using Fugene HD (Promega, E2311). […] After 24 hours, the cell culture medium was removed, and replaced with Dulbecco's Modified Eagle Medium (DMEM, 50 μl) supplemented with 1% fetal bovine serum (FBS). For the measurement of calcium concentration, 50 μL of Fluo-4 reagent (Invitrogen, F10471) was added to each well and cultured in a 37° C. incubator for 2 hours. […] Two hours after the initiation of the culture, the prepared samples were automatically injected into the cells using Flexstation 3 (Molecular Devices), and then, the change in intracellular calcium concentration was measured using SoftMax®Pro software for 120 seconds. Here, for a non-treated group, dimethylsulfoxide (DMSO) was injected into the cells to measure the change in calcium concentration. The GPR40 protein activity was calculated from the measured calcium concentration result values using equation 1 below, and the GPR40 activity (EC50 value) by the samples was obtained. […] GPR 40 activity=(intracellular calcium concentration increased by the sample)/(intracellular calcium concentration of the non-treated group)×100 [Equation 1]

[3] = intracellular calcium, read-out: EC50
[4] = values in text, read-out: concentration activating the GPR40 protein by 50% (EC50)

T1 sequence (O14842 whole entry): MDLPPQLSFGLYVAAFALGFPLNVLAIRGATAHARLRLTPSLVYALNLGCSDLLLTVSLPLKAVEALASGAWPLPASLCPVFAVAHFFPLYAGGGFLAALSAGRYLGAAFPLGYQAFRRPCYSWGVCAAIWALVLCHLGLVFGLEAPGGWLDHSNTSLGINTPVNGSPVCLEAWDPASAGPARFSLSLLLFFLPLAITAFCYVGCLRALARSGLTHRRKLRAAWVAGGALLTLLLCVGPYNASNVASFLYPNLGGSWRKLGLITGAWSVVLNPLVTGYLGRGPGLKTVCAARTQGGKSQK

Compound | inhibition in vivo at 10 mg/kg [1] | EC50 [2, 3] | EC50 [2, 4]
CC#C[C@@H](CC(=O)O)c1ccc(OCc2ccc(CN3CCCc4ccccc43)cc2)cc1 [Example 41, sodium (S)-3-(4-(4-((3,4-dihydroquinolin-1(2H)-yl)methyl)benzyloxy)phenyl)hex-4-ynoate] | 23.7% | > 300 nM | –
CC#CC(CC(=O)O)c1ccc(OCc2ccc(CN3CCc4ccccc4C3)cc2)cc1 (centres unmarked) [Example 12, 3-(4-(4-((3,4-dihydroisoquinolin-2(1H)-yl)methyl)benzyloxy)phenyl)hex-4-ynoic acid] | 31% | < 200 nM | ≤ 200 nM
CC#CC(CC(=O)O)c1ccc(OCc2ccc(CN3CCc4cc(OC)ccc4C3)cc2)cc1 (centres unmarked) [Example 16, 3-(4-(4-((6-methoxy-3,4-dihydroisoquinolin-2(1H)-yl)methyl)benzyloxy)phenyl)hex-4-ynoic acid] | 21.1% | > 300 nM | –
CC#C[C@@H](CC(=O)O)c1ccc(OCc2ccc(CN3CCN(c4ncc(CCC)cn4)CC3)cc2)cc1 [Example 44, (S)-3-(4-(4-((4-(5-propylpyrimidin-2-yl)piperazin-1-yl)methyl)benzyloxy)phenyl)hex-4-ynoic acid] | 22.8% | > 300 nM | –
CC#C[C@@H](CC(=O)O)c1ccc(OCc2ccc(CN3Cc4ccccc4C3)cc2)cc1 [Example 37, sodium (S)-3-(4-(4-(isoindolin-2-ylmethyl)benzyloxy)phenyl)hex-4-ynoate] | 28.5% | – | –
CC#CC(CC(=O)O)c1ccc(OCc2ccc(CN3CC=C(c4ccccc4)CC3)cc2)cc1 (centres unmarked) [Example 14, 3-(4-(4-((4-phenyl-5,6-dihydropyridin-1(2H)-yl)methyl)benzyloxy)phenyl)hex-4-ynoic acid] | 27.7% | < 200 nM | ≤ 200 nM
CC#C[C@@H](CC(=O)O)c1ccc(OCc2ccc(CN3CCN(c4ccc(OCCCS(C)(=O)=O)cc4)CC3)cc2)cc1 [Example 36, (S)-3-(4-(4-((4-(4-(3-(methylsulfonyl)propoxy)phenyl)piperazin-1-yl)methyl)benzyloxy)phenyl)hex-4-ynoic acid] | 22.6% | > 300 nM | –
CC#CC(CC(=O)O)c1ccc(OCc2cccc(C3=CCC(O)CC3)c2)cc1 [Example 6, L-lysine 3-(4-(3-(4-hydroxycyclohex-1-enyl)benzyloxy)phenyl)hex-4-ynoate] | 15.2% | – | –
CC#C[C@@H](CC(=O)O)c1ccc(OCc2ccc(CN3CCc4cc(OC)ccc4C3)cc2)cc1 [Example 25, (S)-3-(4-(4-((6-methoxy-3,4-dihydroisoquinolin-2(1H)-yl)methyl)benzyloxy)phenyl)hex-4-ynoic acid] | 24.6% | > 300 nM | –
CC#CC(CC(=O)O)c1ccc(OCc2cccc(C3=CCC4(CC3)OCCO4)c2)cc1 [Example 2, L-lysine 3-(4-(3-(1,4-dioxaspiro[4.5]dec-7-en-8-yl)benzyloxy)phenyl)hex-4-ynoate] | 17.2% | > 300 nM | –
CC#CC(CC(=O)O)c1ccc(OCc2cccc(C3=CCC(=O)CC3)c2)cc1 (centres unmarked) [Example 4, 3-(4-(3-(4-oxocyclohex-1-enyl)benzyloxy)phenyl)hex-4-ynoic acid] | 16.2% | > 300 nM | –
CC#C[C@@H](CC(=O)O)c1ccc(OCc2ccc(CN3CCN(c4ccc(OCOC)cc4)CC3)cc2)cc1 [Example 29, (S)-3-(4-(4-((4-(4-(methoxymethoxy)phenyl)piperazin-1-yl)methyl)benzyloxy)phenyl)hex-4-ynoic acid] | 27.1% | – | –
CC#CC(CC(=O)O)c1ccc(OCc2ccc(C3=CCC4(CC3)OCCO4)cc2)cc1 (centres unmarked) [Example 3] | 12.5% | – | –
CC#C[C@@H](CC(=O)O)c1ccc(OCc2ccc(CN3CCN(c4nc5ccccc5s4)CC3)cc2)cc1 [Example 43, (S)-3-(4-(4-((4-(benzo[d]thiazol-2-yl)piperazin-1-yl)methyl)benzyloxy)phenyl)hex-4-ynoic acid] | 21.2% | > 300 nM | –
